From patent publication US12398115B2, “Chrysophaentin analogs and use thereof” (Vanderbilt University, priority 2019, dated 2025)
In brackets after ≈: the same amount, converted by molar mass. Entries after “also recorded” stand apart in the source; their conditions may differ. Like-named read-outs stand apart in the source and are kept apart here.

Tests used:
[1] = system: B. subtilis (PY79 WT) peptidoglycan synthesis; assay: HADA (FDAA) incorporation microscopy assay, peptidoglycan synthesis; assay type: cell-based, Bacillus subtilis; details: for inhibition of peptidoglycan synthesis (FDAA incorporation): B. subtilis, FIGS. 7B and 7C
Method: HADA was synthesized according to the reported protocols. Exponentially growing B. subtilis (PY79 WT) cells for the experiments were prepared as described above. […] After a 5-minute incubation at 37° C., HADA stock solution (100 mM) was directly added to the cultures to a final concentration of 0.5 mM. The cultures were then incubated in a 37° C. shaker for 30 minutes. Cell fixation was then carried out by directly adding 0.7 ml 100% ethanol to the cultures, following 1-hour incubation on ice-bath. The fixed cells were collected using centrifuge (9000 g, 3 minutes), washed with 1×PBS twice, and then resuspended into 1×PBS. The cells were imaged using Nikon Ti-E microscope. HADA signal was detected using DAPI filter set (Excitation 395/25 nm; emission 435/26 nm). HADA intensity was analyzed using ImageJ and MicrobeJ plug-in.

[2] = system: FtsZ/FtsA/PBP2B localization in B. subtilis; assay: Imaging of fluorescently labeled FtsZ, FtsA and PBP2B (mNeonGreen); assay type: cell-based, Bacillus subtilis; details: for localization of FtsZ: B. Subtilis, concentration not given; for localization of FtsZ, FtsA and PBP2B: B. subtilis, FIG. 7D; for localization of fluorescently labeled FtsZ (mNeonG): 10 μM (5×MIC), high-resolution microscopy
Method: B. subtilis strains with fluorescent protein fusion were made (FtsZ-mNeonGreen: bAB185, FtsA-mNeonGreen: bAB167, PBP2B-mNeonGreen: bAB109). Exponentially growing cells for the experiments were prepared as described above. Antibiotic stock solutions were added to 0.3 ml exponentially growing cell cultures to a final concentration of 5×MIC. The cells were incubated at 37° C. for 5 minutes and then immediately imaged using the Ti-E microscope without fixation. mNeonGreen signal was detected using FITC filter set (Excitation 470/24 nm; emission 510/40 nm). Image processing was performed in ImageJ. Images were scaled without interpolation, cropped and rotated. Linear adjustment was performed to optimize contrast and brightness of the images. All the images from the same experiment were processed in the same way in order to ensure fair comparison.

[3] = system: Bacillus subtilis (PY79 WT); assay: Cell lengthening assay; assay type: cell-based; details: for cell lengthening: B. Subtilis; for cell lengthening phenotype: B. subtilis, FIG. 7A, concentration not given
Method: Bacillus subtilis (PY79 WT, lab stock) were inoculated from an overnight plate culture (single colony) to 3 ml LB in 15 ml culture tubes. The cultures were incubated in a 37° C. shaker until OD600 reached 0.2. The cultures were then diluted with fresh LB to OD600 0.05, followed by another round of incubation to OD600 0.2. At this point, cells have reached exponentially growing states and were used for experiments. […] The cultures were incubated at a 37° C. shaker for 40 minutes, followed by direct addition of 0.7 ml 100% ethanol (70% final ethanol concentration) and then incubation on ice-bath for 1 hour. The fixed cells were imaged using a Nikon Ti-E inverted microscope equipped with a 1.4NA Plan Apo 60X oil objective and Andor iXon EMCCD camera. Cell images were captured under phase-to-contrast channel. Cell length was analyzed using ImageJ and MicrobeJ plug-in.

S. aureus FtsZ = molecular target: T1, S. aureus FtsZ (Staphylococcus aureus, UniProt P0A031); assay: Biochemical GTPase-FtsZ inhibition assay
T1 sequence (P0A031 1-390): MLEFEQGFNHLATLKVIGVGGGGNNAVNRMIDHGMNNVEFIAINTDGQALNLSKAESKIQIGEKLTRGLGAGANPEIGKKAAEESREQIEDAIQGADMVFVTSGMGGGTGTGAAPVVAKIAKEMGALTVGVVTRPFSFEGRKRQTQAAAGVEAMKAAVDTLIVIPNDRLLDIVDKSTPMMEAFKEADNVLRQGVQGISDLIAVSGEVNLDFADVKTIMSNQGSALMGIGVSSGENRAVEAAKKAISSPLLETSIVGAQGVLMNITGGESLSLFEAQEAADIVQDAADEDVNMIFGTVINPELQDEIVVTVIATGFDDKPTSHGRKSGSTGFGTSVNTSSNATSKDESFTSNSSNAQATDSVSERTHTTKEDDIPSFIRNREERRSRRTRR
Method: (§1) VU0848355 and VU0848354 were evaluated for growth inhibition against S. aureus and inhibition of GTPase activity against S. aureus FtsZ using a biochemical assay (FIGS. 6A-6C).

Gram-positive pathogens = assay: Comparison of bacterial growth inhibition across panel; assay type: cell-based; details: for potency in inhibiting bacterial growth relative to natural C-ring isomers VU0849855 and VU0848355: FIGS. 5A-5C
Method: (§2) MICs for all compounds were determined using the CLSI guidelines on the test strains. Solutions of each compound were prepared by dissolution in DMSO (Sigma Aldrich, St. Louis MO) at a concentration of 10-20 mg mL^−1. […] Stock solutions were added to Mueller-Hinton II broth and serial two-fold dilutions were prepared in a 96-well microtiter plate (50 μL per well). Fifty microliters (50 μL) of inoculum containing 1×10^6 CFU mL^−1 for E. coli, S. aureus, or MRSA, or 2×10^6 CFU mL^−1 for E. faecalis or VRE were added to the wells. Plates were covered with a sterile membrane, placed in a plate reader, and agitated for 2 min to mix the contents of the wells. Plates were incubated at 37° C. for 16 h. Wells containing 4% DMSO or gentamycin served as negative and positive controls. […] Each assay was performed in triplicate and two independent experiments were carried out on separate days.
The bacterial growth inhibition of synthetic 9-dechlorochrysophaentins compared favorably to chrysophaentin A when evaluated across a panel of Gram-positive pathogens (Table 1).

S. aureus ATCC 25293 [4] = assay: Agar diffusion assay; assay type: cell-based, Staphylococcus aureus
Method: as §1

B. Subtilis [5] = assay: Time-lapse microscopy of FtsZ motion; assay type: cell-based, Bacillus subtilis; details: 5×MIC
Method: Time-lapse microscopy was employed to monitor the dynamics of FtsZ motion before and after treatment by these compounds. FtsZ movement drives the septal peptidoglycan synthesis machinery in B. subtilis. The movement is carried out by a “treadmilling process” where FtsZ monomer polymerizes at one end and disassembles at the other. FtsZ polymerization is triggered by binding to GTP while its disassembly is catalyzed by GTP hydrolysis to GDP.

S. aureus ATCC 25293 [6] = assay: Microbroth dilution growth inhibition; assay type: cell-based; details: Staphylococcus aureus, ATCC25293; S. aureus ATCC 25293, microbroth dilution
Method: as §1

[7] = system: Enterococcus faecalis (ATCC 29212); assay: Minimum inhibitory concentration, broth microdilution (CLSI); assay type: cell-based; details: for MIC50: Enterococcus faecalis, ATCC29212, read-out: MIC50 E. Faecalis
From the text: (§3) Chemicals-FtsZ inhibitor PC190723 and ampicllin were purchased from Millipore Sigma Aldrich (St. Louis, MO). Chrysophaentin A was obtained from a 2017 collection of the marine alga C. taylorii collected in the U.S. Virgin Islands (Permit VIIS-2017-SCI-0034) and isolated as described previously. All bacterial strains used for drug susceptibility testing were obtained from the American Type Culture Collection (Manassas, VA) and included Escherichia coli (ATCC 25922), Enterococcus faecalis (ATCC 29212), vancomycin-resistant E. faecalis (VRE, ATCC 51299), Staphylococcus aureus (ATCC 25913), and methicillin-resistant S. aureus (MRSA, ATCC 43300). Strains were maintained on agar slants at 4° C. and sub-cultured on fresh agar plates containing ATCC-recommended media. Strains were cultured in liquid media 16 h prior to any antimicrobial screen. BD BBL™ Mueller-Hinton II broth (Fisher Scientific, Hampton NH) was used for MIC determinations.
as §2

[8] = system: VRE, vancomycin-resistant E. faecalis (ATCC 51299); assay: as above; assay type: cell-based, Enterococcus faecalis; details: for MIC50: Enterococcus
From the text: as §3, §2

B. Subtilis [9] = assay: Minimum inhibitory concentration; assay type: cell-based; details: Bacillus subtilis; read-out: MIC50 B. Subtifis
S. aureus (ATCC 25913) = assay: Minimum inhibitory concentration, broth microdilution (CLSI); assay type: cell-based, Staphylococcus aureus; details: for MIC50: Staphylococcus aureus, ATCC25913
From the text: as §3, §2

[10] = system: MRSA, methicillin-resistant S. aureus (ATCC 43300); assay: as above; assay type: cell-based, Staphylococcus aureus; details: for MIC50: Staphylococcus aureus
From the text: as §3, §2

[11] = system: gram-positive bacteria, such as MRSA; details: against gram-positive bacteria; cited from earlier work

Compound: CC1(C)S[C@@H]2[C@H](NC(=O)[C@H](N)c3ccccc3)C(=O)N2[C@H]1C(=O)O [Ampicillin, ampicillin, reference compound]
- inhibition of peptidoglycan synthesis (FDAA incorporation) [1]: inhibit peptidoglycan synthesis

Compound: NC(=O)c1c(F)ccc(OCc2nc3cc(Cl)cnc3s2)c1F [PC190723, reference compound]
- inhibition of peptidoglycan synthesis (FDAA incorporation) [1]: does not
- inhibition of FDAA incorporation ([1]; up to 10×MIC): minimal inhibition of FDAAs incorporation
- localization of FtsZ [2]: dislocation but retention of FtsZ
- cell lengthening ([3]; 5 μg/mL (10×MIC)): Cell lengthening was observed
- cell lengthening phenotype [3]: produces the expected cell lengthening phenotype
- cell lengthening phenotype ([3]; listed as PC1907723): leads to expected cell lengthening

Compound: COc1cc2cc(OC)c1Oc1cc(c(O)cc1Cl)C/C=C\Cc1cc(O)cc(O)c1Oc1ccc(O)c(c1Cl)C/C=C(/Cl)C2 [VU0848354]
- IC50 (S. aureus FtsZ; S. aureus FtsZ biochemical assay, read-out: IC50 GTPase-FtsZ inhibition): > 250 µM
- inhibition of peptidoglycan synthesis (FDAA incorporation) [1]: inhibit peptidoglycan synthesis; also recorded: inhibited both lateral and septal peptidoglycan synthesis
- potency in inhibiting bacterial growth relative to natural C-ring isomers VU0849855 and VU0848355 (Gram-positive pathogens): approximately two-fold
- growth inhibition, agar diffusion (S. aureus ATCC 25293 [4]): inhibited growth of S. aureus
- cell elongation (B. Subtilis [5]): did not elongate
- localization of FtsZ, FtsA and PBP2B [2]: displace FtsZ/A and penicillin binding protein PBP2B; also recorded: unique dispersion of FtsZ, FtsA and PBP2B
- IC50 (S. aureus ATCC 25293 [6]): < 1 µM
- cell lengthening phenotype [3]: neither VU0848355 and VU0848354 replicates the cell lengthening phenotype

Compound: COc1cc2cc(OC)c1Oc1cc(c(O)cc1Cl)C/C=C\Cc1cc(O)cc(O)c1Oc1cc(c(O)cc1Cl)C/C=C(/Cl)C2 [VU0848355]
- IC50 (S. aureus FtsZ): > 250 µM
- inhibition of peptidoglycan synthesis (FDAA incorporation) [1]: inhibit peptidoglycan synthesis; also recorded: inhibited both lateral and septal peptidoglycan synthesis
- growth inhibition, agar diffusion (S. aureus ATCC 25293 [4]): inhibited growth of S. aureus
- localization of FtsZ, FtsA and PBP2B [2]: displace FtsZ/A and penicillin binding protein PBP2B; also recorded: unique dispersion of FtsZ, FtsA and PBP2B
- IC50 (S. aureus ATCC 25293 [6]): < 1 µM
- cell lengthening phenotype [3]: neither VU0848355 and VU0848354 replicates the cell lengthening phenotype

Compound: Oc1cc(O)c2c(c1)C/C=C\Cc1cc(c(Cl)cc1O)Oc1c(O)cc(cc1O)C/C(Cl)=C\Cc1c(O)ccc(c1Cl)O2 [VU0849838, iso-9-dechlorochrysophaentin A]
- MIC50 [7]: 0.3 µg/mL (≈ 0.466 µM)
- inhibition of FDAA incorporation ([1]; 10 μM (5×MIC)): inhibited incorporation of FDAAs
- MIC50 [8]: 2.2 µg/mL (≈ 3.42 µM)
- MIC50 (B. Subtilis [9]): 2 µg/mL (≈ 3.11 µM)
- MIC50 (S. aureus (ATCC 25913)): 1.1 µg/mL (≈ 1.71 µM)
- MIC50 [10]: 1.1 µg/mL (≈ 1.71 µM)
- potency in inhibiting bacterial growth relative to natural C-ring isomers VU0849855 and VU0848355 (Gram-positive pathogens): approximately two-fold
- growth inhibition (MIC) relative to natural chrysophaentin A (Gram-positive pathogens; S. aureus, MRSA and E. faecalis): approximately two-fold
- localization of fluorescently labeled FtsZ (mNeonG) [2]: complete disassociation of FtsZ
- localization of FtsZ [2]: lead to dislocation of FtsZ
- cell lengthening ([3]; up to 20 μM (10×MIC)): did not affect cell lengthening

Compound: Oc1cc(O)c2c(c1)C/C=C\Cc1cc(c(Cl)cc1O)Oc1c(O)cc(cc1O)C/C(Cl)=C\Cc1cc(c(Cl)cc1O)O2 [VU0849855, 9-dechlorochrysophaentin A]
- MIC50 [7]: 2.5 µg/mL (≈ 3.88 µM)
- inhibition of FDAA incorporation ([1]; 10 μM (5×MIC)): inhibited incorporation of FDAAs
- MIC50 [8]: 5 µg/mL (≈ 7.77 µM)
- MIC50 (B. Subtilis [9]): 4 µg/mL (≈ 6.21 µM)
- MIC50 (S. aureus (ATCC 25913)): 2.5 µg/mL (≈ 3.88 µM)
- MIC50 [10]: 2.5 µg/mL (≈ 3.88 µM)
- localization of fluorescently labeled FtsZ (mNeonG) [2]: complete disassociation of FtsZ
- localization of FtsZ [2]: lead to dislocation of FtsZ
- cell lengthening ([3]; up to 20 μM (10×MIC)): did not affect cell lengthening

Compound: chrysophaentin A [reference compound]
- MIC50 [11]: 1 to 4 µM
- MIC50 E. Faecalis [7]: 2 µg/mL
- MIC50 VRE [8]: 2 µg/mL
- MIC50 S. Aureus (S. aureus (ATCC 25913)): 2 µg/mL
- MIC50 MRSA [10]: 2 µg/mL
- localization of FtsZ [2]: leads to dispersion of FtsZ; also recorded: replicated the FtsZ dispersion phenotype
- localization of FtsZ, FtsA and PBP2B [2]: led to dispersion of the septal peptidoglycan synthesis machinery
